Assay results from publication PMC4979471 (Cell Death Discovery, 2015).
Read-outs that look alike come from different tables or passages of the source.

Legend:
Assay in all cases: Kinase selectivity, P33-radiolabeled assay
Format in all cases: biochemical
Details in all cases: 10 μM ATP
CDK2/Cyclin A1 = molecular target: T1, CDK2/Cyclin A1 (Homo sapiens, UniProt P24941)
T1 construct: purchased Reaction Biology Corp
Method in brief: (§1)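 ATP at 10 μM; test article at 10 μM, single point, two replicates. Output is activity as % of DMSO.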

DYRK4 = molecular target: T2, DYRK4 (Homo sapiens, UniProt Q9NR20)
T2 construct: purchased Reaction Biology Corp
T2 sequence (Q9NR20 1-520): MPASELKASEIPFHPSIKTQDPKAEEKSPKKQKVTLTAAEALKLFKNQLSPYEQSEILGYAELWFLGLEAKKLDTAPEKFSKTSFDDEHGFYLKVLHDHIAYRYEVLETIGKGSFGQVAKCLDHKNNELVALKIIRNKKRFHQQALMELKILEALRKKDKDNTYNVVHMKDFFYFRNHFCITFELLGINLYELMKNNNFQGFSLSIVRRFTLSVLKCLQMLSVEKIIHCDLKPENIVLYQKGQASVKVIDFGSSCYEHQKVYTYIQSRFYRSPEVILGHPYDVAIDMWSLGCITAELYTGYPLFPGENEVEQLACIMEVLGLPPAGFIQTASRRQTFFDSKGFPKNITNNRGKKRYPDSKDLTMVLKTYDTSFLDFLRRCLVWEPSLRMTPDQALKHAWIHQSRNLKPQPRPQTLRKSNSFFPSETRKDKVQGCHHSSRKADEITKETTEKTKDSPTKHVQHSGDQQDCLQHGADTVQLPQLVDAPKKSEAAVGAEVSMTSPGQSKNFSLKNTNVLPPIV
Method in brief: as §1

IR = molecular target: T3, IR (Homo sapiens, UniProt P06213)
T3 construct: purchased Reaction Biology Corp
T3 sequence (P06213 28-1382): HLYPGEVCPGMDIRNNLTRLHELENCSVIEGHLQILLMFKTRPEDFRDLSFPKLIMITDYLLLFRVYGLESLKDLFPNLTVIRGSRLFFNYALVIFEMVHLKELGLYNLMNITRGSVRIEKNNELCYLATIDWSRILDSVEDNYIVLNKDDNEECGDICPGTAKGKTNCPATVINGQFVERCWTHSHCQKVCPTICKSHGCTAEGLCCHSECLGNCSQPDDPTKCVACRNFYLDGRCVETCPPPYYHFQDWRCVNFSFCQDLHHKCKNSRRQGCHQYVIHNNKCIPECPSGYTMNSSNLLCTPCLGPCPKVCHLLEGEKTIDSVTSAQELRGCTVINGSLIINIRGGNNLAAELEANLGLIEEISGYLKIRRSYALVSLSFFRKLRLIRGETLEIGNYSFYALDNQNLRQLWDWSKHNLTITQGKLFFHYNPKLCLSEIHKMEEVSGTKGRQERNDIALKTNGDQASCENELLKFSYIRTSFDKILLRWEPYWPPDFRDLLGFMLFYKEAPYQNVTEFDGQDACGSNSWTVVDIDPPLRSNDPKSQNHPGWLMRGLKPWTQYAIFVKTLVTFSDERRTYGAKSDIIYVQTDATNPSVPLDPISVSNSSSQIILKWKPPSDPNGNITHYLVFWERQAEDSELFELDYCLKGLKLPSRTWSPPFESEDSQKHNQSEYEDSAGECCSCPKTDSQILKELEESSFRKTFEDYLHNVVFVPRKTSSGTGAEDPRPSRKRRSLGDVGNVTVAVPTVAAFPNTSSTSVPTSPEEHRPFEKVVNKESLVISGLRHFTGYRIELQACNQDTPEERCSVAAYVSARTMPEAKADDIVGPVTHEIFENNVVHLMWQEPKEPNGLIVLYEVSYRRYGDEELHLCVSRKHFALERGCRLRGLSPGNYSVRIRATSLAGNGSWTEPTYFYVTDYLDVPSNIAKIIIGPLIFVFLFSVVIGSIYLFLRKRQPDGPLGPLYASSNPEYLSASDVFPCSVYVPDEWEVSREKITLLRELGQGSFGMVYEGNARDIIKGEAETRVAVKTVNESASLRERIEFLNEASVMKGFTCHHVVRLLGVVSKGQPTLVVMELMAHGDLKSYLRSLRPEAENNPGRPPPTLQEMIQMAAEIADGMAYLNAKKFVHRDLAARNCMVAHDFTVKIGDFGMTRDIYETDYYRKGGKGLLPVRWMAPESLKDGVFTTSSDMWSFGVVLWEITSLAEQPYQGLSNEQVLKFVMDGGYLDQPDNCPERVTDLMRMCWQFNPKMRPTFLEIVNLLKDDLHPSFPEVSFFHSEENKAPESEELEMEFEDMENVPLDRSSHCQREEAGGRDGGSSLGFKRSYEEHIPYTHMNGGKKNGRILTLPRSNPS
Method in brief: as §1

LRRK2 = molecular target: T4, LRRK2 (Homo sapiens, UniProt Q5S007)
T4 construct: purchased Reaction Biology Corp
T4 sequence (Q5S007 whole entry): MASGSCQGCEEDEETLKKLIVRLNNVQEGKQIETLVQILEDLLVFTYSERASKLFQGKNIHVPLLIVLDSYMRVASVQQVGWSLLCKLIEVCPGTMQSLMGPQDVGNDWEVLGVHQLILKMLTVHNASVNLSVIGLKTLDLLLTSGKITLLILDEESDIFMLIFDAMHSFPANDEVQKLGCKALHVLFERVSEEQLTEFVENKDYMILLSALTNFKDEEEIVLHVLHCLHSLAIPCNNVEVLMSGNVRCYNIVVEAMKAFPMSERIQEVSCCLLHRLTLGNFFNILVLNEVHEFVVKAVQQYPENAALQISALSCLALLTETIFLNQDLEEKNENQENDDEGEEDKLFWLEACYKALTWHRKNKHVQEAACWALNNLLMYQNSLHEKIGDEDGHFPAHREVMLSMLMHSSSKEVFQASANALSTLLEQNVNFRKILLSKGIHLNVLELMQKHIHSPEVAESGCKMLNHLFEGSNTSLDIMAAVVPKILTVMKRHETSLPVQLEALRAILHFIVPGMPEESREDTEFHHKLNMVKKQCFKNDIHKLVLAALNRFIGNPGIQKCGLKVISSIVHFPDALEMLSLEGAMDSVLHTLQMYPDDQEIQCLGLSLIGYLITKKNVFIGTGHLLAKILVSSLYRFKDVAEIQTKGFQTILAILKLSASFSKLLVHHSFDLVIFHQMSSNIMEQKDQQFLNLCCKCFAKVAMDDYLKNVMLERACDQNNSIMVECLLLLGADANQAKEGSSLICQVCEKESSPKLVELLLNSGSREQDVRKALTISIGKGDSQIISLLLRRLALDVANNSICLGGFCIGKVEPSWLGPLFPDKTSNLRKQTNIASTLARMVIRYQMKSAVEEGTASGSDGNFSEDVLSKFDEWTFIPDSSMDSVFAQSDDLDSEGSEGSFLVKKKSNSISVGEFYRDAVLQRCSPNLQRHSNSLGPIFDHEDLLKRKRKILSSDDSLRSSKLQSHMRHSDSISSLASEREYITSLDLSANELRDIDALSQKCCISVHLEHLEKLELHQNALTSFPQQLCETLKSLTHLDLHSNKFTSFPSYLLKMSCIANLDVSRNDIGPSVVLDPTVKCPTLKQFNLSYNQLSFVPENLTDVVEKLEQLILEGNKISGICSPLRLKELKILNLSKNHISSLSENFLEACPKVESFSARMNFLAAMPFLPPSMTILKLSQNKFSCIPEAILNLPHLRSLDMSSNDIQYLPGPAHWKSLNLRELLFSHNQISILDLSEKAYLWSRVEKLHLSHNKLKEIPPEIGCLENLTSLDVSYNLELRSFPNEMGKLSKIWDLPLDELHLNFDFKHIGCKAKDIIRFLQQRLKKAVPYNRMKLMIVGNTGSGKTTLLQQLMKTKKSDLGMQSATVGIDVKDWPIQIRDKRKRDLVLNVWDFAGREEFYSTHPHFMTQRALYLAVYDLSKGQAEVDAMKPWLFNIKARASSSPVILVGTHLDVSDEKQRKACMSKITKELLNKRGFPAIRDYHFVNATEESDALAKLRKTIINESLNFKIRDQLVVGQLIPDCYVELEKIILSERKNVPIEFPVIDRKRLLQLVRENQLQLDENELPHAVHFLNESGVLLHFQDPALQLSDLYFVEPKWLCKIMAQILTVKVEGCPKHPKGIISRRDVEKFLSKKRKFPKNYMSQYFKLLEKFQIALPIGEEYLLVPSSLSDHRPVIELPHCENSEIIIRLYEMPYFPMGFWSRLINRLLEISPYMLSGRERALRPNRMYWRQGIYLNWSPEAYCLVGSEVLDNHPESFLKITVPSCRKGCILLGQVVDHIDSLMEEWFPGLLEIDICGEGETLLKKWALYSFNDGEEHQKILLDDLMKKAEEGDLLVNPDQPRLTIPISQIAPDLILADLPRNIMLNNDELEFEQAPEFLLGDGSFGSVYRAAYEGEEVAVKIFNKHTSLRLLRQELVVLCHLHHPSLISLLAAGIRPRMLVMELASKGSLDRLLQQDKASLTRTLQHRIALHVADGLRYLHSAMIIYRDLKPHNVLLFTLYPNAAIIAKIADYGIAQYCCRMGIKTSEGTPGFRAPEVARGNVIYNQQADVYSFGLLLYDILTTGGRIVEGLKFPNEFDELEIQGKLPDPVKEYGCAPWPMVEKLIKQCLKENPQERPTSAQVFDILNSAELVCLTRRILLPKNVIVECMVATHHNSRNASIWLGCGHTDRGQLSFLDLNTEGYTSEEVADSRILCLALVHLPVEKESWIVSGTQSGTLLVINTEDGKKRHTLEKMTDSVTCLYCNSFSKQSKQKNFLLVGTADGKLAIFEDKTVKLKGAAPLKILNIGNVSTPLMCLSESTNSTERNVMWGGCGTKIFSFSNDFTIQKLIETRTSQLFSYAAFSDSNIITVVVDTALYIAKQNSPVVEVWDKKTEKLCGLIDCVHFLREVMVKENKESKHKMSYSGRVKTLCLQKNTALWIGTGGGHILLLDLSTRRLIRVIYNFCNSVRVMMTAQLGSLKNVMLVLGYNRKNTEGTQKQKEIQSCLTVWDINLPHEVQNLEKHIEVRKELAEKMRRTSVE
Method in brief: as §1

NEK1 = molecular target: T5, NEK1 (Homo sapiens, UniProt Q96PY6)
T5 construct: purchased Reaction Biology Corp
T5 sequence (Q96PY6 1-1258): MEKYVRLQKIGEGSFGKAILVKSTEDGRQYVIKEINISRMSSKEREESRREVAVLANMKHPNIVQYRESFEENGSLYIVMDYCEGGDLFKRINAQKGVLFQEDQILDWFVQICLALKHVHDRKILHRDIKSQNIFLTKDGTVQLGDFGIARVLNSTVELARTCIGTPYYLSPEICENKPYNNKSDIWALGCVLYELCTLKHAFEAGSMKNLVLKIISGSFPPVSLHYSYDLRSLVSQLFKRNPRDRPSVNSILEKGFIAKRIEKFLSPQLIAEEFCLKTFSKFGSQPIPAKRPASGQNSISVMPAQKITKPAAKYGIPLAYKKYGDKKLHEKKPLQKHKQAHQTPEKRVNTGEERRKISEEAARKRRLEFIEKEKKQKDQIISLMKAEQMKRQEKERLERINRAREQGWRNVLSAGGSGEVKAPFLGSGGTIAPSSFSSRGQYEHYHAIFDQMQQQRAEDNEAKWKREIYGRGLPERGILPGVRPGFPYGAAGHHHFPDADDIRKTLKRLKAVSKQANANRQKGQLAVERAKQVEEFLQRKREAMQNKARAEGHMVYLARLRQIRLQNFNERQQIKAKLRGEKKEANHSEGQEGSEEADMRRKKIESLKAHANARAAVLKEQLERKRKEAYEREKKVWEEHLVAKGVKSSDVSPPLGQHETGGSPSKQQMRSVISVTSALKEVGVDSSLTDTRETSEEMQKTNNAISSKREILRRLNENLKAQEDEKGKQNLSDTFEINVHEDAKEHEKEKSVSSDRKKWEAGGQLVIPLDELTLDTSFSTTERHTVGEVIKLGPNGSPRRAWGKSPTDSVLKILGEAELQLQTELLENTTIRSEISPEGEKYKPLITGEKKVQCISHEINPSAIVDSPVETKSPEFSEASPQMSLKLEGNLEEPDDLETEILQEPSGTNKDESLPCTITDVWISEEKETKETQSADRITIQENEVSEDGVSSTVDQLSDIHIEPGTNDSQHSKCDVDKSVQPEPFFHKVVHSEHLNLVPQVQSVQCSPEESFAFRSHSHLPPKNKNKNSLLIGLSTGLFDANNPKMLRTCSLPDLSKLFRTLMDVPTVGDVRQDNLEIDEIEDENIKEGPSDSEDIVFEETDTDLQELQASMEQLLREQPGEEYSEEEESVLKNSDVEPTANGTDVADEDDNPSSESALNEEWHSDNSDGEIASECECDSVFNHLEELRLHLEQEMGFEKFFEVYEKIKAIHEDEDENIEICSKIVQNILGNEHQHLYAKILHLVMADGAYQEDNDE
Method in brief: as §1

PBK/TOPK = molecular target: T6, PBK/TOPK (Homo sapiens, UniProt Q96KB5)
T6 construct: purchased Reaction Biology Corp
T6 sequence (Q96KB5 1-322): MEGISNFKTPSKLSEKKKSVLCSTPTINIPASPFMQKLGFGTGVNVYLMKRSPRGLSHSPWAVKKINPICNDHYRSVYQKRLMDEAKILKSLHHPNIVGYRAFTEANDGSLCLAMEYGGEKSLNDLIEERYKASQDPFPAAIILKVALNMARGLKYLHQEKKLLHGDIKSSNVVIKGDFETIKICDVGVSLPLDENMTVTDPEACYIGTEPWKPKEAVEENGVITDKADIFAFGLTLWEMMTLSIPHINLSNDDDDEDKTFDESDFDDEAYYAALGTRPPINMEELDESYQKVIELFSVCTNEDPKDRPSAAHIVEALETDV
Method in brief: as §1

PDGFRa = molecular target: T7, PDGFRa (Homo sapiens, UniProt P16234)
T7 construct: purchased Reaction Biology Corp
Method in brief: as §1

PKAcb = molecular target: T8, PKAcb (Homo sapiens, UniProt P22694)
T8 construct: purchased Reaction Biology Corp
Method in brief: as §1

STK16 = molecular target: T9, STK16 (Homo sapiens, UniProt O75716)
T9 construct: purchased Reaction Biology Corp
T9 sequence (O75716 whole entry): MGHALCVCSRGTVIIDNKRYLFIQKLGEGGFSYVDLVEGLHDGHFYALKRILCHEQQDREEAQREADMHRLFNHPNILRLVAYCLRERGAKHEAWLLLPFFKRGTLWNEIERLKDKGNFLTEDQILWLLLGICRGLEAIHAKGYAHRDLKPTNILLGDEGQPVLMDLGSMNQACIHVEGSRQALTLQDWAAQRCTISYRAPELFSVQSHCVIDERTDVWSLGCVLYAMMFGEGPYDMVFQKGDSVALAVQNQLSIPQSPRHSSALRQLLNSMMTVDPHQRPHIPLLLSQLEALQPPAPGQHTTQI
Method in brief: as §1

p70S6Kb/RPS6KB2 = molecular target: T10, p70S6Kb/RPS6KB2 (Homo sapiens, UniProt Q9UBS0)
T10 construct: purchased Reaction Biology Corp
T10 sequence (Q9UBS0 whole entry): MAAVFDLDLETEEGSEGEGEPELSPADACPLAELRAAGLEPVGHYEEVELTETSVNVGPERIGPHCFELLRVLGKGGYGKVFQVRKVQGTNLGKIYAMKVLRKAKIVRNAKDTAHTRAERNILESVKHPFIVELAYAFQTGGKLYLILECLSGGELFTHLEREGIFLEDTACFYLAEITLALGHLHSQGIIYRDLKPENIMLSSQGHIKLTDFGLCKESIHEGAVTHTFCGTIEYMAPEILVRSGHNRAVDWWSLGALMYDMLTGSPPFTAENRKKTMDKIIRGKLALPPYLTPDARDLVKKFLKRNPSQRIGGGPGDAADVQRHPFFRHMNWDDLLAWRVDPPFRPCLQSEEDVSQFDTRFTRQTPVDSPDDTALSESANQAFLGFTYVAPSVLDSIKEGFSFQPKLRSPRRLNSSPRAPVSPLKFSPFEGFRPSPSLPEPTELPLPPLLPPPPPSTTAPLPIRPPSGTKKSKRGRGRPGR
Method in brief: as §1

[1] = read-out: % Enzyme Activity (relative to DMSO controls) AVG
[2] = read-out: % Enzyme Activity (relative to DMSO controls) Data 1
[3] = read-out: % Enzyme Activity (relative to DMSO controls) Data 2

Question: For `CC(C)(C)C(=O)N1N=CC[C@H]1c1ccccc1` [GSK′963], which remaining activity at 10 µM (CDK2/Cyclin A1; [1]) is on record?
Answer: The remaining activity at 10 µM was 107%.

Question: And the remaining activity at 10 µM (CDK2/Cyclin A1; [2])?
Answer: Its remaining activity at 10 µM is 107%.

Question: And the remaining activity at 10 µM (CDK2/Cyclin A1; [3])?
Answer: The remaining activity at 10 µM was 107%.

Question: What about the remaining activity at 10 µM (DYRK4; [1]) of the same compound?
Answer: Its remaining activity at 10 µM is 101%.

Question: What about the remaining activity at 10 µM (DYRK4; [2]) of the same compound?
Answer: Its remaining activity at 10 µM is 101%.

Question: And the remaining activity at 10 µM (DYRK4; [3])?
Answer: The remaining activity at 10 µM was 101%.

Question: And the remaining activity at 10 µM (IR; [1])?
Answer: Its remaining activity at 10 µM is 101%.

Question: What about the remaining activity at 10 µM (IR; [2]) of the same compound?
Answer: The remaining activity at 10 µM was 104%.

Question: And the remaining activity at 10 µM (IR; [3])?
Answer: Its remaining activity at 10 µM is 97.1%.

Question: And the remaining activity at 10 µM (LRRK2; [1])?
Answer: Its remaining activity at 10 µM is 99.5%.

Question: What about the remaining activity at 10 µM (LRRK2; [2]) of the same compound?
Answer: The remaining activity at 10 µM was 102%.

Question: And the remaining activity at 10 µM (LRRK2; [3])?
Answer: The remaining activity at 10 µM was 97.1%.

Question: And the remaining activity at 10 µM (NEK1; [1])?
Answer: The remaining activity at 10 µM was 97.5%.

Question: What about the remaining activity at 10 µM (NEK1; [2]) of the same compound?
Answer: Its remaining activity at 10 µM is 97.1%.

Question: What about the remaining activity at 10 µM (NEK1; [3]) of the same compound?
Answer: Its remaining activity at 10 µM is 98%.

Question: What about the remaining activity at 10 µM (PBK/TOPK; [1]) of the same compound?
Answer: Its remaining activity at 10 µM is 104%.

Question: And the remaining activity at 10 µM (PBK/TOPK; [2])?
Answer: Its remaining activity at 10 µM is 103%.

Question: What about the remaining activity at 10 µM (PBK/TOPK; [3]) of the same compound?
Answer: The remaining activity at 10 µM was 105%.

Question: What about the remaining activity at 10 µM (PDGFRa; [1]) of the same compound?
Answer: Its remaining activity at 10 µM is 104%.

Question: What about the remaining activity at 10 µM (PDGFRa; [2]) of the same compound?
Answer: The remaining activity at 10 µM was 101%.

Question: And the remaining activity at 10 µM (PDGFRa; [3])?
Answer: The remaining activity at 10 µM was 106%.

Question: What about the remaining activity at 10 µM (PKAcb; [1]) of the same compound?
Answer: The remaining activity at 10 µM was 111%.

Question: And the remaining activity at 10 µM (PKAcb; [2])?
Answer: Its remaining activity at 10 µM is 110%.

Question: And the remaining activity at 10 µM (PKAcb; [3])?
Answer: Its remaining activity at 10 µM is 113%.

Question: And the remaining activity at 10 µM (STK16; [1])?
Answer: Its remaining activity at 10 µM is 101%.

Question: And the remaining activity at 10 µM (STK16; [2])?
Answer: The remaining activity at 10 µM was 101%.

Question: And the remaining activity at 10 µM (STK16; [3])?
Answer: The remaining activity at 10 µM was 101%.

Question: And the remaining activity at 10 µM (p70S6Kb/RPS6KB2; [1])?
Answer: Its remaining activity at 10 µM is 100%.

Question: What about the remaining activity at 10 µM (p70S6Kb/RPS6KB2; [2]) of the same compound?
Answer: The remaining activity at 10 µM was 102%.

Question: And the remaining activity at 10 µM (p70S6Kb/RPS6KB2; [3])?
Answer: Its remaining activity at 10 µM is 98%.
